In brackets after ≈: the same amount, converted by molar mass.
What was measured:
[1] = biological target: CYP3A4 (Homo sapiens, UniProt P08684); assay: Inhibition of CYP3A4 in human liver microsomes using midazolam as substrate after 10 mins by LC-MS/MS analysis; type: ADME; conditions: human, liver microsomes, probe midazolam
[2] = […] of CYP450 in human liver microsomes as substrate after 10 mins by LC-MS/MS analysis; type: ADME
[3] = Metabolic stability in rat hepatic microsomes assessed as parent compound remaining at 1 uM after 30 mins in presence of NADPH by LC-MS/MS analysis relative to control; type: ADME, Microsome; conditions: liver microsomes, read-out: Stability
[4] = system: P-gp; assay: Substrate activity at P-gp (unknown origin) assessed as efflux ratio; type: ADME; conditions: human, not told
[5] = biological target: T1, CYP2A6 (Homo sapiens, UniProt P11509); assay: Inhibition of CYP2A6 in human liver microsomes using coumarin as substrate after 10 mins by LC-MS/MS analysis; type: ADME; conditions: human, liver microsomes, probe coumarin
T1 sequence (P11509 whole entry): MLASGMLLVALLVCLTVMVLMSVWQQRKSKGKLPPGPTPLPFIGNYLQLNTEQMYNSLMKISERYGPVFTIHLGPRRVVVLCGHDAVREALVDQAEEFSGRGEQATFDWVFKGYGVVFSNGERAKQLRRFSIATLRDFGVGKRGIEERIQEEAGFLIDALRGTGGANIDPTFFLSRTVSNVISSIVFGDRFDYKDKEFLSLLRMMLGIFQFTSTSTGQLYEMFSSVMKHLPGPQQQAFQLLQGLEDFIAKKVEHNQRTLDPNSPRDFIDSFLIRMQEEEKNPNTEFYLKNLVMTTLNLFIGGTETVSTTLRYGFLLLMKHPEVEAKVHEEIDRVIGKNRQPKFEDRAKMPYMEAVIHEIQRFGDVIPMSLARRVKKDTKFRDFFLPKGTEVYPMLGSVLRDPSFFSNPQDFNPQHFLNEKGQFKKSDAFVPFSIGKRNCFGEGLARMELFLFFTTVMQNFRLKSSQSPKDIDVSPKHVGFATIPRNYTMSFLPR

[6] = Metabolic stability in human hepatic microsomes assessed as parent compound remaining at 1 uM after 30 mins in presence of NADPH by LC-MS/MS analysis relative to control; type: ADME, Microsome; conditions: liver microsomes, read-out: Stability
[7] = biological target: T2, CYP2C8 (Homo sapiens, UniProt P10632); assay: Inhibition of CYP2C8 in human liver microsomes using amodiaquine as substrate after 10 mins by LC-MS/MS analysis; type: ADME; conditions: human, liver microsomes, probe amodiaquine
T2 sequence (P10632 whole entry): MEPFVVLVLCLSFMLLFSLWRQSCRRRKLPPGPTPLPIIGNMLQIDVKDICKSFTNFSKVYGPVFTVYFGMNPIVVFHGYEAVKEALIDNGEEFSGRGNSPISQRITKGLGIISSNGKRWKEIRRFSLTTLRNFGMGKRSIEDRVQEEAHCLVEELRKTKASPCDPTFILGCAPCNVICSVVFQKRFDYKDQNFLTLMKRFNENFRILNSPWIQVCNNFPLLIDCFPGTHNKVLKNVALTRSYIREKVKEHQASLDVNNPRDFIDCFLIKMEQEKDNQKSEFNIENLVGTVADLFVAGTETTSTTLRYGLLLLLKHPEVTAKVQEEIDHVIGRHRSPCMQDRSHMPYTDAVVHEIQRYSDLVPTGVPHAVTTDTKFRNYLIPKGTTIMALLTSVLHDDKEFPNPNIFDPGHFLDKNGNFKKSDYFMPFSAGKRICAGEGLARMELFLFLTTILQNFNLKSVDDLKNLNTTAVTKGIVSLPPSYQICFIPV

[8] = Aqueous solubility of compound at pH 7.4; type: physicochemical; conditions: aqueous medium
[9] = biological target: CYP2C9 (Homo sapiens, UniProt P11712); assay: Inhibition of CYP2C9 in human liver microsomes using diclofenac as substrate after 10 mins by LC-MS/MS analysis; type: ADME; conditions: human, liver microsomes, probe diclofenac
Chain of CYP2C9 (P11712 whole entry): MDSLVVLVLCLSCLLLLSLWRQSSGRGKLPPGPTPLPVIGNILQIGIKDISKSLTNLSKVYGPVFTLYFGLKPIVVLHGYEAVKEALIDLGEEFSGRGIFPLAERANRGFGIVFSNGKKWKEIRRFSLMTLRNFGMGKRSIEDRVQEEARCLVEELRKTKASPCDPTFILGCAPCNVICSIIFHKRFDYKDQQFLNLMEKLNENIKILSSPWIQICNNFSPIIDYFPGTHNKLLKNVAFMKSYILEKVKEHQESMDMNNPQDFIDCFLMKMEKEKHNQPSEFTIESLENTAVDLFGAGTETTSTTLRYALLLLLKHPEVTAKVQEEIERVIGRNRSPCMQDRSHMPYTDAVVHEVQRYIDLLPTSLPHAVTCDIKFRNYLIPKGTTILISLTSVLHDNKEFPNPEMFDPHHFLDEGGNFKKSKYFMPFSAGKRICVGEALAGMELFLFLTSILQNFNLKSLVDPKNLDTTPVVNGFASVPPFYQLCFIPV

[10] = biological target: CYP2C19 (Homo sapiens, UniProt P33261); assay: Inhibition of CYP2C19 in human liver microsomes using (S)-mephenytoin as substrate after 10 mins by LC-MS/MS analysis; type: ADME; conditions: human, liver microsomes, probe (S)-mephenytoin
Chain of CYP2C19 (P33261 whole entry): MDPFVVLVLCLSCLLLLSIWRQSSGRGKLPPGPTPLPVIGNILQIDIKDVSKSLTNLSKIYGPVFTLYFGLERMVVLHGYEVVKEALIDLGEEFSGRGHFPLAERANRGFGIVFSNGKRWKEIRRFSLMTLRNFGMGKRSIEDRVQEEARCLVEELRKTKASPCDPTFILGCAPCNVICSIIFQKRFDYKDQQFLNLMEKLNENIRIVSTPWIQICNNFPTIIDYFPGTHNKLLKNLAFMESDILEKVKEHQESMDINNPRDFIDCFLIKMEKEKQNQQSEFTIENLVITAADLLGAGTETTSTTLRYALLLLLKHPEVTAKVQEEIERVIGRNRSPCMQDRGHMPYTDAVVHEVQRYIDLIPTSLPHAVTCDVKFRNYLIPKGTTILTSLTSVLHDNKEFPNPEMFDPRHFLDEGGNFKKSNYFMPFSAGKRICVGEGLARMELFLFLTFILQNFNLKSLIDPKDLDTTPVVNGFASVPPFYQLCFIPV

[11] = biological target: CYP2D6 (Homo sapiens, UniProt P10635); assay: Inhibition of CYP2D6 in human liver microsomes using bufuralol as substrate after 10 mins by LC-MS/MS analysis; type: ADME; conditions: human, liver microsomes, probe bufuralol
Chain of CYP2D6 (P10635 whole entry): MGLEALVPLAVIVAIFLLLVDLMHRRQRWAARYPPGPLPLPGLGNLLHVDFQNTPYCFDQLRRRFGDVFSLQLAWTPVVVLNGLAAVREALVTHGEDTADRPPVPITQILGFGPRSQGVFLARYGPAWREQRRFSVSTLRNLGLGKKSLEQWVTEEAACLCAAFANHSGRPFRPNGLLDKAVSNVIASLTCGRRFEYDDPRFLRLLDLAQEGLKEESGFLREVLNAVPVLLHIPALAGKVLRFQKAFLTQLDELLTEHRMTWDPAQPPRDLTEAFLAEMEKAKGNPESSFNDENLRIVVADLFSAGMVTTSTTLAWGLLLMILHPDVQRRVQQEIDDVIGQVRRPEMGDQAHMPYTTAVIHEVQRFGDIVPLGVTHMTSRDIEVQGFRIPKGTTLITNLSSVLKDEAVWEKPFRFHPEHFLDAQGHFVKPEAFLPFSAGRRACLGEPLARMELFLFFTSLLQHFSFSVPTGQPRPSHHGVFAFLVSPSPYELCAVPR

[12] = biological target: T3, CYP1A2 (Homo sapiens, UniProt P05177); assay: Inhibition of CYP1A2 in human liver microsomes using phenacetin as substrate after 10 mins by LC-MS/MS analysis; type: ADME; conditions: human, liver microsomes, probe phenacetin
T3 sequence (P05177 whole entry): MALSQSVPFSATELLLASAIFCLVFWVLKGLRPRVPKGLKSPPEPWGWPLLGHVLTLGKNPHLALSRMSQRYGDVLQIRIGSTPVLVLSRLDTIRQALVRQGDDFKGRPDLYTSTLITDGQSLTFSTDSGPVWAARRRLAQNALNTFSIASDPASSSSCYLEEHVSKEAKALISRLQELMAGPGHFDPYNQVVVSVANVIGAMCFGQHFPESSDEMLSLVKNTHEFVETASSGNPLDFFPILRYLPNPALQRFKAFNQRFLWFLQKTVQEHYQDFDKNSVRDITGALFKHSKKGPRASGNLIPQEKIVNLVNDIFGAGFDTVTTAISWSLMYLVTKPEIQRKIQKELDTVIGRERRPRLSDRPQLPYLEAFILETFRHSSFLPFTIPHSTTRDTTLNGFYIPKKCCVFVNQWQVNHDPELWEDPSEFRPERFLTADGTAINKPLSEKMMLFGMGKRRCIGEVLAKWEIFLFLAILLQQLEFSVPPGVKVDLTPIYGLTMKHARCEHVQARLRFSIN

[13] = biological target: Metabotropic glutamate receptor 5 (Homo sapiens, UniProt P41594); assay: Negative allosteric modulation of human recombinant mGluR5 expressed in HEK293 cells assessed as inhibition of glutamate-induced calcium mobilization preincubated for 2 mins followed glutamate addition measured by fluorescence assay; type: functional, cell-based
Chain of Metabotropic glutamate receptor 5 (P41594 whole entry): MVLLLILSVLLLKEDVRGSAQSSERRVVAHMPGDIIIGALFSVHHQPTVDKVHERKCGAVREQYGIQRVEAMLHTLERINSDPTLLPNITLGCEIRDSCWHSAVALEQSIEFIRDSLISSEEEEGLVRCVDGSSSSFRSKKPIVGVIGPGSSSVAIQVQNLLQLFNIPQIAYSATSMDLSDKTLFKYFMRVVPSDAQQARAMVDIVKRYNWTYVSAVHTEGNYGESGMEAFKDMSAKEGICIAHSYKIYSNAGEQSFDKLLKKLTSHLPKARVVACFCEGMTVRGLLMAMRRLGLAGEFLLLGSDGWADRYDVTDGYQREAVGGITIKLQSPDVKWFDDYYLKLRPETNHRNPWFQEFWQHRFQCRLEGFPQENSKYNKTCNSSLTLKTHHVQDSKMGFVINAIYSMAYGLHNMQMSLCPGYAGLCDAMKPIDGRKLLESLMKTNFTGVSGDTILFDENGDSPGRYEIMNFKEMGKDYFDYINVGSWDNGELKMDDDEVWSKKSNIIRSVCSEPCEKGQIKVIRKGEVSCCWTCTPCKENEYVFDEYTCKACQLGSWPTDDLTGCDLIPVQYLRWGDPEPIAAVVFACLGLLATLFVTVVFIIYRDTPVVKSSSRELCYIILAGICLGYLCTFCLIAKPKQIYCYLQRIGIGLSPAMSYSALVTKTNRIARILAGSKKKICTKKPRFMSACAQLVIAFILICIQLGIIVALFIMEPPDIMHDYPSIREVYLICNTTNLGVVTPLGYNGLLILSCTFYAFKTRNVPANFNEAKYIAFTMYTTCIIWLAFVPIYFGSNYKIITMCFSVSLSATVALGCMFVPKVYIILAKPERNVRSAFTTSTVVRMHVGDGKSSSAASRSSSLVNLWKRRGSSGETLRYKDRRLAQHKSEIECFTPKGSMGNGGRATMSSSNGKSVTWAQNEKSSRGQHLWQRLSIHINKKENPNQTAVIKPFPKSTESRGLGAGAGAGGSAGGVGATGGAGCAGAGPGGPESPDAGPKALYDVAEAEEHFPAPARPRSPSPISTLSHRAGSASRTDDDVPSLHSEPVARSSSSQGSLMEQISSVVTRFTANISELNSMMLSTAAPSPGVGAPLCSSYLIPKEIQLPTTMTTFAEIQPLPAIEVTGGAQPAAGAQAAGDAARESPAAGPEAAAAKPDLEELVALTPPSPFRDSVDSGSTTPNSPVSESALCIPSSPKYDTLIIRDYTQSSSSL

Chain of CYP3A4 (P08684 whole entry): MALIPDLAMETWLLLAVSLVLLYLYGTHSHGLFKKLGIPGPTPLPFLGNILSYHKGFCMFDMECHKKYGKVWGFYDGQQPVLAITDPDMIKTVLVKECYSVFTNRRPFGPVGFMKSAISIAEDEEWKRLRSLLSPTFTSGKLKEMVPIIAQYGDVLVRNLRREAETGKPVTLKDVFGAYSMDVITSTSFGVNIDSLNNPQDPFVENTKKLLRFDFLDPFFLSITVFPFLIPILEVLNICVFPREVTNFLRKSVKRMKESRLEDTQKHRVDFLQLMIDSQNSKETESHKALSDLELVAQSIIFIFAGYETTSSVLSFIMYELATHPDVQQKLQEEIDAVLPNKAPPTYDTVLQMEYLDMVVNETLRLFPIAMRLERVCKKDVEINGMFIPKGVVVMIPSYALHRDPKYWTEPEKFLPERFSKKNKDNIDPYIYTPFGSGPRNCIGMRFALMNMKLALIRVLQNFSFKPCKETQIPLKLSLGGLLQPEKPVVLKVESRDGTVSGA

| IC50 at 10 min [1] [µM] | Activity [2] | remaining at 0.5 h, 1 µM [3] [%] | efflux ratio [4] | IC50 at 10 min [5] [µM] | remaining at 0.5 h, 1 µM [6] [%] | IC50 at 10 min [7] [µM] | solubility [8] [µg/mL] | IC50 at 10 min [9] [µM] | IC50 at 10 min [10] [µM] | IC50 at 10 min [11] [µM] | IC50 at 10 min [12] [µM] | IC50 [13] [µM] | Compound |
| --- | --- | --- | --- | --- | --- | --- | --- | --- | --- | --- | --- | --- | --- |
| > 40 | Not Active | > 97 | 1.2 | > 40 | > 97 | > 40 | 4 (≈ 10.7 µM) | > 40 | > 40 | > 40 | > 40 |  | O=C(c1cc(F)cc(Cl)c1)N1CCn2nc(-c3ccc(F)cn3)cc2C1 |
|  |  | > 91 |  |  | > 91 |  |  |  |  |  |  | 0.05 | O=C(c1cccc(Cl)c1)N1CCc2oc(-c3ccc(F)cn3)nc2C1 |
|  |  | > 97 |  |  | > 97 |  |  |  |  |  |  | 0.403 | N#Cc1cc(F)cc(C(=O)N2CCc3oc(-c4ccc(F)cn4)nc3C2)c1 |

— ChEMBL document CHEMBL4043199, “Synthesis and optimization of 4,5,6,7-tetrahydrooxazolo[4,5-c]pyridines as potent and orally-active metabotropic glutamate receptor 5 negative allosteric modulators” (Bioorg Med Chem Lett, 2017)
